According to US10538561B2, “Peptide for treating inflammatory diseases” (priority 2015, dated 2020):

How the values were obtained:
[1] = tested on: Human Keratinocytes (HaCaT); assay: Cell cycle assay (Sub-G0/G1); assay type: cell-based; conditions: 48 h
Description: Cell lines: Human Keratinocytes (HaCaT); test Item: IS181; treatment regimen: treated twice (once after 24 hours)-48 hours; concentration range: 100 6 g/ml-5000 6 g/ml. […] Cells were treated with IS181 for 24 hours. After 24 h, cells were again treated with IS181 for 24 hours. After 48 h of first treatment, cells were harvested and fixed in ethanol overnight. Cells were washed and stained with Cell cycle reagent and acquired on flow cytometer. […] Positive control: Curcumin.

IL-17 = IL-17 secretion in ConA stimulated splenocytes; assay type: cell-based, mouse; design: inhibition of IL-17 secretion as compared to Control (ConA) levels: dose or concentration left out as unconfirmed; conditions: for % Inhibition of IL-17 wrt Control (ConA) / Conc. of IL-17: splenocytes + ConA, 24 h
Description: Cell lines: mouse splenocytes; test item: IS181; treatment regimen: single addition—24 hours; concentration range: 10 μg/ml-5000 μg/ml.A) Identification of non-cytotoxic concentrations: splenocytes were treated with IS181 for 24 hours. Effect on cell viability was assessed by MTT assay. Concentrations leading to >75% cell viability were selected for IL-17 assay. B) IL-17 assay: splenocytes were treated with IS181 in presence of ConA stimulation for 24 hours. Supernatants were collected and stored at −20° C. till analysed. Levels of IL-17 were analysed in supernatants by ELISA. Percent inhibition of IL-17 secretion was calculated with reference to ConA treated levels. Positive control: curcumin.

VEGF = VEGF inhibition in keratinocytes (ELISA); assay type: cell-based, Human; design: inhibition of VEGF secretion as compared to untreated (basal) levels: dose or concentration left out as unconfirmed; conditions: HaCaT; for % Inhibition of VEGF wrt untreated (basal) levels / Conc. of VEGF: 24 h
Description: Cell lines: Human Keratinocytes (HaCaT); test item: IS181; treatment regimen: single addition—24 hours; concentration range: 0.1 μg/ml-100 μg/ml. […] Cells were serum-starved for another 24 hours (0% FBS). Cells were treated with IS181 for 24 hours. Supernatants were collected and stored at −20° C. till analysed. Levels of VEGF were analysed in supernatants by ELISA. Percent inhibition of VEGF secretion was calculated with reference to untreated levels. Positive control: curcumin; retinoic acid (at non-cytotoxic concentrations).

[2] = tested on: HaCaT (Human keratinocyte); assay: LDH enzyme release assay; assay type: cell-based
Description: For testing Apoptosis the Human Keratinocytes (HaCaT) cell line has been employed. The growth conditions are DMEM containing 1% FBS. […] Test concentration range is IS181 is tested at the highest (Qualitative analysis) effective concentrations selected on the basis of Quantitative JC-1 assay. The method of estimation is Mitochondrial membrane depolarization by JC-1 assay (Early apoptosis), LDH enzyme release (Necrosis). Treatment regimen & time points are JC-1 assay—Single addition, 20 h; LDH assay—Single addition, 24 h; Positive control: Triton-X-100, Doxorubicin-hydrochloride
End-point: Percentage increase in LDH activity in treated cells with respect to untreated.

[3] = Cell viability (MTT assay) in HaCaT; assay type: cell-based, Human; conditions: human, HaCaT keratinocytes, HaCaT, 1% FBS
Description: (§1) Cell Lines/Cells: Human Keratinocytes (HaCaT); Human melanoma (SK-MEL-28); Human PBMCs. Test Item: IS181 Treatment regimen: Single addition—24 h, ^#Multiple additions (3)−72 h; Concentration range: 1 ng/ml-2 mg/ml (triplicate wells); Sera Condition: […] Method of estimation: MTT assay. […] Positive control: Triton-X-100, Doxorubicin Hydrochloride.

[4] = tested on: Human Keratinocytes (HaCaT); assay: Cell viability (MTT assay) in HaCaT; assay type: cell-based; conditions: for IC50 value / cytotoxicity: HaCaT
Description: as §1

[5] = tested on: Human Keratinocytes (HaCaT); assay: TUNEL assay; assay type: cell-based; conditions: 48 h
Description: Cell lines: Human Keratinocytes (HaCaT); test item (TI): IS181; treatment regimen: treated twice (once after 24 hours)-48 hours; Concentration range: 100 6 g/ml-5000 6 g/ml. […] Cells were sera starved in 1% FBS for 24 hours. Cells were treated with IS181 for 24 hours. After 24 h, cells were again treated with IS181 for 24 hours. After 48 h of first treatment, cells were processed for TUNEL staining. Fold increase in apoptotic cells [TUNEL positive] was calculated with respect to untreated control cells. Positive control: Curcumin, Anthralin, Betullinic acid. […] No increase in TUNEL positive cells was observed from 100 μg/ml-2000 μg/ml.

- increase in LDH enzyme activity with respect to untreated ([2]; 750 μg/ml to 2 mg/ml): ≥ 90%
- % Increase with respect to untreated (LDH) ([2]; 24 h, 400 μg/ml): 26.03%
- LDH Activity (mU/ml) ([2]; 24 h, 400 μg/ml): 79.73 mU/ml
- % Increase with respect to untreated (LDH) ([2]; 24 h, 475 μg/ml): ***49.73%
- LDH Activity (mU/ml) ([2]; 24 h, 475 μg/ml): 94.71 mU/ml
- % Increase with respect to untreated (LDH) ([2]; 24 h, 500 μg/ml): **34.76%
- LDH Activity (mU/ml) ([2]; 24 h, 500 μg/ml): 85.25 mU/ml
- % Increase with respect to untreated (LDH) ([2]; 24 h, 750 μg/ml): ***90.43%
- LDH Activity (mU/ml) ([2]; 24 h, 750 μg/ml): 120.47 mU/ml
- % Increase with respect to untreated (LDH) ([2]; 24 h, 1000 μg/ml): ***116.28%
- LDH Activity (mU/ml) ([2]; 24 h, 1000 μg/ml): 136.82 mU/ml
- % Increase with respect to untreated (LDH) ([2]; 24 h, 2000 μg/ml): ***119.09%
- LDH Activity (mU/ml) ([2]; 24 h, 2000 μg/ml): 138.60 mU/ml
- increase in LDH enzyme release with respect to untreated ([2]; 24 h, concentrations around IC50 value): > 50%
Substance: H-WVQRVVEKFLK-OH [IS181, H-Trp-Val-Gln-Arg-Val-Val-Glu-Lys-Phe-Leu-Lys-OH]
- increase in pro-apoptotic cells (Sub-G0/G1 population) vs untreated ([1]; 100 μg/ml): 9.1 fold
- increase in pro-apoptotic cells (Sub-G0/G1 population) vs untreated ([1]; 500 μg/ml): 7.1 fold
- increase in pro-apoptotic cells (Sub-G0/G1 population) vs untreated ([1]; 1000 μg/ml): 2.3 fold
- increase in pro-apoptotic cells (Sub-G0/G1 population) vs untreated ([1]; 5000 μg/ml): 29.7 fold
- inhibition of IL-17 secretion as compared to Control (ConA) levels (IL-17; splenocytes): 48.2%-71.4%
- % Inhibition of IL-17 wrt Control (ConA) (IL-17; 10 μg/ml): 71.4%
- Conc. of IL-17 (IL-17; 10 μg/ml): 13.3 pg/mL
- % Inhibition of IL-17 wrt Control (ConA) (IL-17; 50 μg/ml): 59.5%
- Conc. of IL-17 (IL-17; 50 μg/ml): 18.8 pg/mL
- % Inhibition of IL-17 wrt Control (ConA) (IL-17; 100 μg/ml): 62.1%
- Conc. of IL-17 (IL-17; 100 μg/ml): 17.6 pg/mL
- % Inhibition of IL-17 wrt Control (ConA) (IL-17; 500 μg/ml): 48.2%
- Conc. of IL-17 (IL-17; 500 μg/ml): 24.1 pg/mL
- % Inhibition of IL-17 wrt Control (ConA) (IL-17; 1000 μg/ml): 58.8%
- Conc. of IL-17 (IL-17; 1000 μg/ml): 19.2 pg/mL
- inhibition of VEGF secretion as compared to untreated (basal) levels (VEGF): 11.1%-17%
- % Inhibition of VEGF wrt untreated (basal) levels (VEGF; 0.1 μg/ml): 17.0%
- Conc. of VEGF (VEGF; 0.1 μg/ml): 2982.4 pg/mL
- % Inhibition of VEGF wrt untreated (basal) levels (VEGF; 1 μg/ml): 12.6%
- Conc. of VEGF (VEGF; 1 μg/ml): 3139.7 pg/mL
- % Inhibition of VEGF wrt untreated (basal) levels (VEGF; 5 μg/ml): 11.1%
- Conc. of VEGF (VEGF; 5 μg/ml): 3193.5 pg/mL
- % Inhibition of VEGF wrt untreated (basal) levels (VEGF; 10 μg/ml): 12.9%
- Conc. of VEGF (VEGF; 10 μg/ml): 3128.2 pg/mL
- % Inhibition of VEGF wrt untreated (basal) levels (VEGF; 100 μg/ml): 0.7%
- Conc. of VEGF (VEGF; 100 μg/ml): 3565.8 pg/mL
- cytotoxicity at 24 h, 0.1 μg/ml ([3]; 24 h, 0.1 μg/ml): -1.4%
- cytotoxicity at 24 h, 0.5 μg/ml ([3]; 24 h, 0.5 μg/ml): -4.61%
- cytotoxicity at 24 h, 1 μg/ml ([3]; 24 h, 1 μg/ml): 4.88%
- cytotoxicity at 24 h, 5 μg/ml ([3]; 24 h, 5 μg/ml): 8.43%
- cytotoxicity at 24 h, 10 μg/ml ([3]; 24 h, 10 μg/ml): 5.75%
- cytotoxicity at 24 h, 50 μg/ml ([3]; 24 h, 50 μg/ml): 1.79%
- cytotoxicity at 24 h, 100 μg/ml ([3]; 24 h, 100 μg/ml): -0.58%
- cytotoxicity at 24 h, 500 μg/ml ([3]; 24 h, 500 μg/ml): 18.9%
- cytotoxicity at 24 h, 1000 μg/ml ([3]; 24 h, 1000 μg/ml): 87.8%
- cytotoxicity at 24 h, 2000 μg/ml ([3]; 24 h, 2000 μg/ml): 91.3%
- cytotoxicity at 72 h, 0.1 μg/ml ([3]; 72 h, 0.1 μg/ml): -56.2%
- cytotoxicity at 72 h, 0.5 μg/ml ([3]; 72 h, 0.5 μg/ml): -75.4%
- cytotoxicity at 72 h, 1 μg/ml ([3]; 72 h, 1 μg/ml): -66.1%
- cytotoxicity at 72 h, 5 μg/ml ([3]; 72 h, 5 μg/ml): -37.5%
- cytotoxicity at 72 h, 10 μg/ml ([3]; 72 h, 10 μg/ml): -44.5%
- cytotoxicity at 72 h, 50 μg/ml ([3]; 72 h, 50 μg/ml): -33%
- cytotoxicity at 72 h, 100 μg/ml ([3]; 72 h, 100 μg/ml): -42.5%
- cytotoxicity at 72 h, 500 μg/ml ([3]; 72 h, 500 μg/ml): 58.5%
- cytotoxicity at 72 h, 1000 μg/ml ([3]; 72 h, 1000 μg/ml): 91%
- cytotoxicity at 72 h, 2000 μg/ml ([3]; 72 h, 2000 μg/ml): 89.4%
- IC50 ([4]; 24 h): 470 µM
- Selectivity Index -IC50 (PBMC)/IC50 (HaCaT/SK-MEL-28 cells) ([4]; 24 h): 3
- selectivity of cytotoxic activity against human keratinocytes ([4]; 24 h): selective cytotoxic activity
- IC50 ([4]; 72 h): 290 µM
- Selectivity Index -IC50 (PBMC)/IC50 (HaCaT/SK-MEL-28 cells) ([4]; 72 h): 2
- IC50 value ([4]; 24 h): 670 mg/L
- cytotoxicity ([4]; 24 h, at concentrations 2 mg/ml): 87%-91%
- IC50 value ([4]; 72 h): 420 mg/L
- cytotoxicity ([4]; 72 h, concentrations ≥0.5 mg/ml): 58%-90%
- increase in TUNEL positive cells ([5]; 100 μg/ml-2000 μg/ml): No increase
- increase in apoptotic cells (TUNEL positive population) vs untreated ([5]; 5000 μg/ml): 28.3%
